Measurements taken from the NIST ThermoML archive (doi:10.1016/j.fluid.2004.09.013).

Conditions: for vapor or sublimation pressure: Liquid; for mass density: Fluid (supercritical or subcritical phases), Vibrating tube method

C/C=C/C [(E)-2-butene]
Conditions | vapor or sublimation pressure [kPa]
391.25 K | 2128.9
396.15 K | 2323.1
401.02 K | 2529.8
405.96 K | 2755.8
411.21 K | 3016
416.99 K | 3326
423.45 K | 3697

Conditions | mass density [kg/m3]
393.24 K, 2756 kPa | 454.89
393.24 K, 10003 kPa | 497.51
393.24 K, 19992 kPa | 528.52
393.24 K, 24995 kPa | 539.91
393.24 K, 29988 kPa | 549.71
393.24 K, 34990 kPa | 558.37
393.24 K, 39993 kPa | 566.17
393.25 K, 4997 kPa | 472.39
393.25 K, 14998 kPa | 514.88
398.24 K, 2959 kPa | 443.84
398.24 K, 4981 kPa | 462.17
398.24 K, 19993 kPa | 522.99
398.24 K, 24990 kPa | 534.84
398.24 K, 29994 kPa | 545.03
398.24 K, 34989 kPa | 553.97
398.24 K, 39985 kPa | 561.98
398.25 K, 9988 kPa | 490.01
398.25 K, 14985 kPa | 508.6
403.24 K, 3180 kPa | 432.03
403.24 K, 4993 kPa | 451.14
403.24 K, 20001 kPa | 517.41
403.24 K, 24988 kPa | 529.74
403.24 K, 29983 kPa | 540.28
403.24 K, 40005 kPa | 557.82
403.25 K, 9990 kPa | 482.36
403.25 K, 14985 kPa | 502.24
403.25 K, 34985 kPa | 549.53
408.25 K, 3414 kPa | 419.31
408.25 K, 4983 kPa | 439.35
408.25 K, 9983 kPa | 474.42
408.25 K, 14983 kPa | 495.75
408.25 K, 19999 kPa | 511.74
408.25 K, 24993 kPa | 524.63
408.25 K, 29986 kPa | 535.55
408.25 K, 35006 kPa | 545.13
408.25 K, 39984 kPa | 553.58
413.25 K, 3663 kPa | 405.52
413.25 K, 4996 kPa | 426.54
413.25 K, 9995 kPa | 466.32
413.25 K, 14985 kPa | 489.18
413.25 K, 19983 kPa | 505.96
413.25 K, 24984 kPa | 519.43
413.25 K, 30003 kPa | 530.83
413.25 K, 34985 kPa | 540.64
413.25 K, 39999 kPa | 549.4
418.25 K, 3926 kPa | 390.44
418.25 K, 5005 kPa | 412.09
418.25 K, 10002 kPa | 457.93
418.25 K, 14984 kPa | 482.48
418.25 K, 19988 kPa | 500.19
418.25 K, 25008 kPa | 514.29
418.25 K, 30007 kPa | 526.05
418.25 K, 34987 kPa | 536.18
418.25 K, 40000 kPa | 545.19
423.25 K, 4203 kPa | 373.85
423.25 K, 4985 kPa | 394.86
423.25 K, 9986 kPa | 449.09
423.25 K, 14991 kPa | 475.65
423.25 K, 20002 kPa | 494.39
423.25 K, 24993 kPa | 509.02
423.25 K, 30004 kPa | 521.25
423.25 K, 34988 kPa | 531.71
423.25 K, 39993 kPa | 540.98
428.25 K, 4495 kPa | 355.87
428.25 K, 4987 kPa | 374.39
428.25 K, 9990 kPa | 440.12
428.25 K, 14983 kPa | 468.7
428.25 K, 20010 kPa | 488.52
428.25 K, 24997 kPa | 503.78
428.25 K, 30004 kPa | 516.44
428.25 K, 34994 kPa | 527.25
428.25 K, 39986 kPa | 536.76
433.25 K, 5019 kPa | 349.08
433.25 K, 9991 kPa | 430.38
433.25 K, 14995 kPa | 461.71
433.25 K, 19998 kPa | 482.53
433.25 K, 25004 kPa | 498.52
433.25 K, 30001 kPa | 511.61
433.25 K, 34993 kPa | 522.78
433.25 K, 39997 kPa | 532.57
438.25 K, 5017 kPa | 309.55
438.25 K, 9985 kPa | 420.62
438.25 K, 14989 kPa | 454.5
438.25 K, 19998 kPa | 476.52
438.25 K, 25008 kPa | 493.22
438.25 K, 30004 kPa | 506.79
438.25 K, 34989 kPa | 518.29
438.25 K, 39985 kPa | 528.34
443.25 K, 5019 kPa | 241.91
443.25 K, 9986 kPa | 410.38
443.25 K, 14991 kPa | 447.2
443.25 K, 20002 kPa | 470.46
443.25 K, 25001 kPa | 487.86
443.25 K, 30002 kPa | 501.91
443.25 K, 34997 kPa | 513.82
443.25 K, 39989 kPa | 524.15
448.25 K, 5019 kPa | 186.22
448.25 K, 9990 kPa | 399.76
448.25 K, 14990 kPa | 439.76
448.25 K, 19992 kPa | 464.3
448.25 K, 24997 kPa | 482.49
448.25 K, 29990 kPa | 497.07
448.25 K, 34988 kPa | 509.34
448.25 K, 39987 kPa | 519.97
453.25 K, 5019 kPa | 159.59
453.25 K, 9992 kPa | 388.61
453.25 K, 14987 kPa | 432.19
453.25 K, 20001 kPa | 458.19
453.25 K, 24998 kPa | 477.11
453.25 K, 29995 kPa | 492.22
